Reference: the NIST ThermoML archive (doi:10.1021/je700254t)
Numbers after ± are expanded uncertainties.

Test: xn = mol fraction of the nth substance listed
Conditions: 101.3 kPa, Liquid

ClC(Cl)Cl [trichloromethane] + CCCO
mass density [kg/m3]
Conditions	288.15 K	293.15 K	298.15 K	303.15 K	308.15 K	313.15 K
x2 = 0	1498.08 ± 0.48	1488.64 ± 0.47	1479.15 ± 0.46	1469.61 ± 0.45	1460.03 ± 0.45	1450.41 ± 0.44
x2 = 0.0493	1465.28 ± 0.47	1456.03 ± 0.46	1446.74 ± 0.46	1437.41 ± 0.45	1428.01 ± 0.44	1418.58 ± 0.44
x2 = 0.0992	1432.56 ± 0.45	1423.54 ± 0.44	1414.47 ± 0.43	1405.35 ± 0.43	1396.17 ± 0.42	1386.95 ± 0.41
x2 = 0.1499	1399.07 ± 0.42	1390.3 ± 0.42	1381.48 ± 0.41	1372.61 ± 0.41	1363.67 ± 0.4	1354.7 ± 0.39
x2 = 0.2002	1365.96 ± 0.4	1357.46 ± 0.4	1348.9 ± 0.39	1340.28 ± 0.38	1331.6 ± 0.38	1322.86 ± 0.37
x2 = 0.2496	1333.59 ± 0.38	1325.35 ± 0.37	1317.05 ± 0.37	1308.69 ± 0.36	1300.27 ± 0.35	1291.8 ± 0.35
x2 = 0.2999	1300.43 ± 0.36	1292.46 ± 0.35	1284.43 ± 0.34	1276.34 ± 0.34	1268.19 ± 0.33	1260.01 ± 0.33
x2 = 0.3493	1267.61 ± 0.34	1259.92 ± 0.33	1252.16 ± 0.32	1244.35 ± 0.32	1236.47 ± 0.31	1228.55 ± 0.31
x2 = 0.4004	1233.49 ± 0.31	1226.07 ± 0.31	1218.59 ± 0.3	1211.06 ± 0.3	1203.46 ± 0.29	1195.83 ± 0.28
x2 = 0.4502	1200.08 ± 0.29	1192.93 ± 0.28	1185.74 ± 0.28	1178.48 ± 0.28	1171.16 ± 0.27	1163.79 ± 0.26
x2 = 0.5001	1166.15 ± 0.27	1159.29 ± 0.26	1152.38 ± 0.26	1145.42 ± 0.25	1138.38 ± 0.25	1131.32 ± 0.24
x2 = 0.5497	1132.24 ± 0.25	1125.66 ± 0.24	1119.03 ± 0.24	1112.35 ± 0.23	1105.6 ± 0.23	1098.81 ± 0.23
x2 = 0.5999	1097.62 ± 0.23	1091.33 ± 0.22	1084.99 ± 0.22	1078.61 ± 0.21	1072.15 ± 0.21	1065.65 ± 0.21
x2 = 0.6497	1062.78 ± 0.21	1056.79 ± 0.2	1050.75 ± 0.2	1044.65 ± 0.2	1038.49 ± 0.19	1032.31 ± 0.19
x2 = 0.7001	1027.34 ± 0.19	1021.65 ± 0.19	1015.91 ± 0.18	1010.11 ± 0.18	1004.26 ± 0.18	998.364 ± 0.17
x2 = 0.7499	991.931 ± 0.18	986.531 ± 0.18	981.083 ± 0.18	975.586 ± 0.19	970.031 ± 0.19	964.415 ± 0.19
x2 = 0.7998	956.019 ± 0.2	950.913 ± 0.2	945.767 ± 0.2	940.572 ± 0.21	935.323 ± 0.21	930.03 ± 0.21
x2 = 0.8503	919.243 ± 0.22	914.435 ± 0.22	909.588 ± 0.22	904.699 ± 0.23	899.757 ± 0.23	894.778 ± 0.23
x2 = 0.9002	882.47 ± 0.24	877.949 ± 0.24	873.397 ± 0.25	868.803 ± 0.25	864.163 ± 0.25	859.496 ± 0.25
x2 = 0.95	845.487 ± 0.27	841.239 ± 0.27	836.96 ± 0.27	832.652 ± 0.27	828.298 ± 0.27	823.912 ± 0.28
